Measurements from patent US20130053385A1, “METHOD OF COMBATING AND CONTROLLING PESTS” (SYNGENTA LIMITED, priority 2009, published 2013).

What was measured:
Type in all cases: in vivo
[1] = test system: Diabrotica balteata (Corn Root Worm); assay: Activity against Diabrotica balteata, larvicide, feeding/residual contact activity, preventive (artificial diet MTP, Example B6); settings: 120 h, L2 larvae, 5 days incubation, read-out: activity (larval mortality, antifeedant, growth regulation)
Experimental: Activity Against Diabrotica balteata (Corn Root Worm)
(§1) (larvicide, feeding/residual contact activity, preventive)
24-well microtiter plate (MTP) with artificial diet is treated with test solutions by pipetting. After drying, the MTP's are infested with larvae (L2)(6-10 per well). After an incubation period of 5 days, samples are checked for larval mortality, antifeedant and growth regulation.

[2] = test system: Tetranychus urticae (Two-Spotted Spider Mite); assay: Activity against Tetranychus urticae, mixed population, feeding/residual contact activity, preventive (bean leaf discs, Example B4); settings: foliar, 192 h, 400 ppm, sprayed bean leaf discs, 8 days, mixed-age mites, read-out: activity (egg, larval and adult mortality)
Source text: Activity Against Tetranychus urticae (Two-Spotted Spider Mite)
(§2) (mixed population, feeding/residual contact activity, preventive)
Bean leaf discs on agar in 24-well microtiter plates are sprayed with test solutions. After drying, the leaf discs are infested with mite populations of mixed ages. 8 days later, discs are checked for egg mortality, larval mortality, and adult mortality.

[3] = test system: Plutella xylostella (Diamond Back Moth); assay: Activity against Plutella xylostella, larvicide, feeding/residual contact activity, preventive (artificial diet MTP, Example B5); settings: 120 h, 400 ppm, artificial diet, L2 larvae, 5 days incubation, read-out: activity (larval mortality, antifeedant, growth regulation)
Experimental: Activity Against Plutella xylostella (Diamond Back Moth)
as §1
24-well microtiter plate (MTP) with artificial diet is treated with test solutions by pipetting. After drying, the MTP's are infested with larvae (L2)(10-15 per well). After an incubation period of 5 days, samples are checked for larval mortality, antifeedant and growth regulation.

[4] = test system: Myzus persicae (Green Peach Aphid); assay: Activity against Myzus persicae, mixed population, feeding/residual contact activity, preventive (sunflower leaf discs, Example B1); settings: foliar, 144 h, 400 ppm, sprayed sunflower leaf discs, 6 days incubation, mixed-age aphids, read-out: activity (mortality)
Experimental: (§3) Activity Against Myzus persicae (Green Peach Aphid)
as §2
Sunflower leaf discs are placed on agar in a 24-well microtiter plate and sprayed with test solutions. After drying, the leaf discs are infested with an aphid population of mixed ages. After an incubation period of 6 days, samples are checked for mortality and special effects (e.g. phytotoxicity).

[5] = test system: Thrips tabaci (Onion Thrips); assay: Activity against Thrips tabaci, mixed population, feeding/residual contact activity, preventive (sunflower leaf discs, Example B3); settings: foliar, 144 h, sprayed sunflower leaf discs, 6 days incubation, mixed-age thrips
Experimental: Activity Against Thrips tabaci (Onion Thrips)
as §2
Sunflower leaf discs are placed on agar in a 24-well microtiter plate and sprayed with test solutions. After drying, the leaf discs are infested with a thrips population of mixed ages. After an incubation period of 6 days, samples are checked for mortality and special effects (e.g. phytotoxicity).

[6] = test system: Myzus persicae (Green Peach Aphid); assay: Activity against Myzus persicae, mixed population, feeding activity (sucrose solution through Parafilm, Example B7); settings: 120 h, in sucrose solution, 5 days after infestation
Source text: as §3
(mixed population, feeding activity)
Test compounds are applied with a pipette into 24 well plates and mixed with a sucrose solution. The plates are closed with a stretched Parafilm. A plastic stencil with 24 holes is placed onto the plate and infested pea seedlings are placed directly on the Parafilm. The infested plate is closed with a gel blotting paper and another plastic stencil, and then turned upside down. 5 days after infestation the samples are checked for mortality.

Cc1cc(C)c(C2C(=O)CC(CC3CCOC(C)(C)C3)C2=O)c(C)c1 (stereo not drawn) [Compound T39]
> 80%: mortality at 400 ppm [1] | mortality at 400 ppm [2]

Cc1cc(C)c(C2=C(OC(=O)c3ccccc3)CC(CC3CCOCC3)C2=O)c(C)c1 (stereo not drawn) [Compound P44]
> 80%: mortality at 400 ppm [1] | mortality at 400 ppm [3] | mortality at 400 ppm [2] | mortality at 400 ppm [4] | mortality at 400 ppm [5]

COc1ccc(C(=O)OC2=C(c3c(C)cc(C)cc3C)C(=O)CC2CC2CCOC2)cc1 (stereo not drawn) [Compound P71]
> 80%: mortality at 400 ppm [1] | mortality at 400 ppm [2] | mortality at 400 ppm [4]

Cc1cc(Br)cc(C)c1C1C(=O)CC(CC2CCOC2)C1=O (stereo not drawn) [Compound T160]
> 80%: mortality at 400 ppm [1]

Cc1cc(-c2ccc(Cl)cc2)cc(C)c1C1C(=O)C/C(=C\C2CCOCC2)C1=O (stereo not drawn) [Compound T62]
> 80%: mortality at 400 ppm [3] | mortality at 400 ppm [2] | mortality at 400 ppm [4] | mortality at 25 ppm [6]

Cc1cc(C)c(C2C(=O)C/C(=C\C3CCN(C(=O)OC(C)(C)C)CC3)C2=O)c(C)c1 (stereo not drawn) [Compound T54]
> 80%: mortality at 400 ppm [1] | mortality at 400 ppm [2]

Cc1cc(C)c(C2C(=O)C/C(=C\C3CCCOC3)C2=O)c(C)c1 (stereo not drawn) [Compound T14]
> 80%: mortality at 400 ppm [3] | mortality at 400 ppm [2] | mortality at 400 ppm [4] | mortality at 400 ppm [5] | mortality at 25 ppm [6]

Cc1cc(-c2ccc(F)cc2)cc(C)c1C1C(=O)C/C(=C\C2CCOCC2)C1=O (stereo not drawn) [Compound T61]
> 80%: mortality at 400 ppm [2] | mortality at 400 ppm [4] | mortality at 25 ppm [6]

Cc1cc(-c2ccc(F)cc2)cc(C)c1C1C(=O)CC(CC2CCOCC2)C1=O (stereo not drawn) [Compound T63]
> 80%: mortality at 400 ppm [2] | mortality at 400 ppm [4] | mortality at 25 ppm [6]

Cc1cc(C)c(C2C(=O)C/C(=C\C3CCOC3)C2=O)c(C)c1 (stereo not drawn) [Compound T17]
> 80%: mortality at 400 ppm [1] | mortality at 400 ppm [3] | mortality at 400 ppm [2] | mortality at 400 ppm [4] | mortality at 400 ppm [5]
